Laboratory results from PubChem BioAssay AID328 (DTP/NCI, 2004).
Values joined by “and” are separate entries in the source; they are usually repeats but may differ in a detail not shown here. Equal values may be shown once. Toxic doses and inconclusive results are not listed. Rule for the calls: active = survival T/C of 150% or more; inactive = T/C below 125% in these data.

Test system: BDF1 mice, P388 leukemia ip, median survival T/C
Assay: NCI In Vivo Anticancer Drug Screen. Data for tumor model P388 Leukemia (intraperitoneal) in B6D2F1 (BDF1) mice
Details: endpoint: median survival time, higher = longer survival
In short: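 In tumour-bearing mice, survival after compound treatment is set against the vehicle group and given as a quotient.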

[1] = dose: 100.0 mg/kg/injection, schedule: Q01DX009 (ip), vehicle: Klucel (hydroxypropylcellulose) (HPC)
[2] = dose: 100.0 mg/kg/injection, schedule: Q04DX003 (ip), vehicle: Klucel (hydroxypropylcellulose) (HPC)
[3] = dose: 200.0 mg/kg/injection, schedule: Q01DX009 (ip), vehicle: Klucel (hydroxypropylcellulose) (HPC)
[4] = dose: 200.0 mg/kg/injection, schedule: Q04DX003 (ip), vehicle: Klucel (hydroxypropylcellulose) (HPC)
[5] = dose: 400.0 mg/kg/injection, schedule: Q04DX003 (ip), vehicle: Klucel (hydroxypropylcellulose) (HPC)
[6] = dose: 25.0 mg/kg/injection, schedule: Q01DX009 (ip), vehicle: saline
[7] = dose: 50.0 mg/kg/injection, schedule: Q01DX009 (ip), vehicle: saline
[8] = dose: 100.0 mg/kg/injection, schedule: Q01DX009 (ip), vehicle: saline
[9] = dose: 100.0 mg/kg/injection, schedule: Q04DX003 (ip), vehicle: saline with Tween-80
[10] = dose: 200.0 mg/kg/injection, schedule: Q04DX003 (ip), vehicle: saline with Tween-80
[11] = dose: 100.0 mg/kg/injection, schedule: Q01DX001 (ip), vehicle: saline with Tween-80
[12] = dose: 200.0 mg/kg/injection, schedule: Q01DX001 (ip), vehicle: saline with Tween-80
[13] = dose: 25.0 mg/kg/injection, schedule: Q01DX009 (ip), vehicle: saline with Tween-80
[14] = dose: 50.0 mg/kg/injection, schedule: Q01DX009 (ip), vehicle: saline with Tween-80
[15] = dose: 100.0 mg/kg/injection, schedule: Q01DX009 (ip), vehicle: saline with Tween-80
[16] = dose: 400.0 mg/kg/injection, schedule: Q01DX009 (ip), vehicle: Klucel (hydroxypropylcellulose) (HPC)
[17] = dose: 200.0 mg/kg/injection, schedule: Q01DX009 (ip), vehicle: saline with Tween-80
[18] = dose: 400.0 mg/kg/injection, schedule: Q04DX003 (ip), vehicle: saline with Tween-80

Measured: T/C

Cc1cc2nc(C)c(=O)[nH]c2cc1C
inactive: [1] 100 % of control | [2] 95 % of control | [3] 95 % of control | [4] 95 % of control | [5] 95 % of control

CC1C[N-]1.CC1C[N-]1.[Cl][Pt+2][Cl] (configuration not stated)
inactive: [6] 100 % of control | [7] 111 % of control | [8] 101 % of control | dose: 150.0 mg/kg/injection, schedule: Q01DX009 (ip), vehicle: saline 100 % of control

CN1CCC(CN2c3ccccc3Sc3ccccc32)CC1
inactive: dose: 1.56 mg/kg/injection, schedule: Q01DX009 (ip), vehicle: Klucel (hydroxypropylcellulose) (HPC) 105 % of control | dose: 3.12 mg/kg/injection, schedule: Q01DX009 (ip), vehicle: Klucel (hydroxypropylcellulose) (HPC) 86 % of control and 105 % of control | dose: 6.25 mg/kg/injection, schedule: Q01DX009 (ip), vehicle: Klucel (hydroxypropylcellulose) (HPC) 95 % of control | dose: 8.75 mg/kg/injection, schedule: Q04DX003 (ip), vehicle: Klucel (hydroxypropylcellulose) (HPC) 95 % of control | dose: 17.5 mg/kg/injection, schedule: Q04DX003 (ip), vehicle: Klucel (hydroxypropylcellulose) (HPC) 95 % of control | dose: 35.0 mg/kg/injection, schedule: Q04DX003 (ip), vehicle: Klucel (hydroxypropylcellulose) (HPC) 109 % of control | dose: 50.0 mg/kg/injection, schedule: Q04DX003 (ip), vehicle: Klucel (hydroxypropylcellulose) (HPC) 110 % of control | dose: 80.0 mg/kg/injection, schedule: Q04DX003 (ip), vehicle: Klucel (hydroxypropylcellulose) (HPC) 120 % of control | [9] 118 % of control | [10] 86 % of control

CCOC(=O)C(CCCO)C(=O)OCC
inactive: dose: 50.0 mg/kg/injection, schedule: Q01DX001 (ip), vehicle: saline with Tween-80 115 % of control | [11] 100 % of control | [12] 110 % of control

O=S(=O)(O)SCCNCCCCCC1CCCCC1
inactive: dose: 0.75 mg/kg/injection, schedule: Q01DX009 (ip), vehicle: saline 100 % of control | dose: 1.5 mg/kg/injection, schedule: Q01DX009 (ip), vehicle: saline 100 % of control | dose: 3.0 mg/kg/injection, schedule: Q01DX009 (ip), vehicle: Klucel (hydroxypropylcellulose) (HPC) 100 % of control | dose: 3.0 mg/kg/injection, schedule: Q01DX009 (ip), vehicle: saline 100 % of control | dose: 6.0 mg/kg/injection, schedule: Q01DX009 (ip), vehicle: Klucel (hydroxypropylcellulose) (HPC) 115 % of control | dose: 6.0 mg/kg/injection, schedule: Q01DX009 (ip), vehicle: saline 105 % of control

O=C1CSCC(=O)C1
inactive: dose: 100.0 mg/kg/injection, schedule: Q04DX002 (ip), vehicle: saline with Tween-80 94 % of control | dose: 200.0 mg/kg/injection, schedule: Q04DX002 (ip), vehicle: saline with Tween-80 96 % of control | dose: 400.0 mg/kg/injection, schedule: Q04DX002 (ip), vehicle: saline with Tween-80 96 % of control

CN(C)N=C(Cc1ccccc1)Cc1ccccc1
inactive: dose: 12.5 mg/kg/injection, schedule: Q04DX003 (ip), vehicle: saline with Tween-80 108 % of control | dose: 25.0 mg/kg/injection, schedule: Q04DX003 (ip), vehicle: saline with Tween-80 108 % of control | dose: 50.0 mg/kg/injection, schedule: Q04DX003 (ip), vehicle: saline with Tween-80 104 % of control

CCOC(=O)C1NC(=S)NCC1=O (configuration not stated)
inactive: [1] 110 % of control | [3] 110 % of control

CCN(CC)CCCC(C)Nc1c2ccc(Cl)cc2nc2ccc(OC)cc12 (configuration not stated)
active: dose: 99.0 mg/kg/injection, schedule: Q04DX003 (ip), vehicle: saline 150 % of control | dose: 150.0 mg/kg/injection, schedule: Q04DX003 (ip), vehicle: saline 172 % of control
inactive: dose: 9.37 mg/kg/injection, schedule: Q01DX009 (ip), vehicle: saline 86 % of control | dose: 18.75 mg/kg/injection, schedule: Q01DX009 (ip), vehicle: saline 90 % of control | dose: 37.5 mg/kg/injection, schedule: Q01DX009 (ip), vehicle: saline 100 % of control and 109 % of control | dose: 75.0 mg/kg/injection, schedule: Q01DX009 (ip), vehicle: saline 118 % of control and 120 % of control | dose: 75.0 mg/kg/injection, schedule: Q04DX003 (ip), vehicle: saline 104 % of control

CC12CCC3c4ccc(OP(=O)(N5CC5)N5CC5)cc4CCC3C1CCC2O (configuration not stated)
inactive: dose: 12.5 mg/kg/injection, schedule: Q01DX009 (ip), vehicle: saline with Tween-80 102 % of control | [13] 93 % of control | [14] 121 % of control | [15] 121 % of control

CCCCCCCCC(=O)NCc1ccc(OC)cc1
inactive: dose: 100.0 mg/kg/injection, schedule: Q01DX001 (ip), vehicle: other 91 % of control | dose: 200.0 mg/kg/injection, schedule: Q01DX001 (ip), vehicle: other 100 % of control | dose: 400.0 mg/kg/injection, schedule: Q01DX001 (ip), vehicle: other 91 % of control

C/C(=N\N=C(/C)c1ccc(Cl)cc1)c1ccc(Cl)cc1
inactive: [1] 95 % of control | [3] 90 % of control | [16] 113 % of control

CN(C)P(=O)(Oc1ccccc1)N(C)C
inactive: [13] 94 % of control | [14] 120 % of control | [15] 102 % of control and 103 % of control | [17] 100 % of control

O=C(C=C(C(F)(F)F)C(F)(F)F)c1ccc([N+](=O)[O-])cc1
inactive: dose: 1.56 mg/kg/injection, schedule: Q01DX009 (ip), vehicle: other 100 % of control | dose: 3.13 mg/kg/injection, schedule: Q01DX009 (ip), vehicle: other 109 % of control | dose: 6.25 mg/kg/injection, schedule: Q01DX009 (ip), vehicle: other 104 % of control

Nc1ccc(C2=NN(c3ccccc3)CN(c3ccccc3)N2)cc1
inactive: [11] 101 % of control | [12] 107 % of control | dose: 400.0 mg/kg/injection, schedule: Q01DX001 (ip), vehicle: saline with Tween-80 102 % of control

Cc1ccc(C2(C#N)CCCCC2)cc1
inactive: dose: 66.0 mg/kg/injection, schedule: Q01DX009 (ip), vehicle: saline with Tween-80 116 % of control | [15] 120 % of control | [9] 100 % of control | dose: 150.0 mg/kg/injection, schedule: Q01DX009 (ip), vehicle: saline with Tween-80 112 % of control | [17] 108 % of control | [10] 108 % of control | dose: 400.0 mg/kg/injection, schedule: Q01DX009 (ip), vehicle: saline with Tween-80 116 % of control | [18] 112 % of control

CC1=CCCC(C)C12CCC(C(C)(C)O)C2 (configuration not stated)
inactive: [15] 92 % of control | [9] 100 % of control | [17] 92 % of control | [10] 113 % of control | [18] 118 % of control

COc1ccc(C(=O)c2cc(OC)c(OC)c(OC)c2)cc1OC
inactive: [1] 92 % of control | [8] 109 % of control | [2] 95 % of control | [3] 107 % of control | dose: 200.0 mg/kg/injection, schedule: Q01DX009 (ip), vehicle: saline 113 % of control | [4] 104 % of control | [16] 107 % of control | dose: 400.0 mg/kg/injection, schedule: Q01DX009 (ip), vehicle: saline 122 % of control | [5] 95 % of control

Cc1ccc(-c2nn3c(-c4ccccc4)nnc3o2)cc1
inactive: [9] 110 % of control | [10] 115 % of control | [18] 105 % of control

CCCCCCOP(=O)(N1CC1)N1CC1
inactive: [6] 123 % of control | [7] 90 % of control | [9] 113 % of control

CCCCCCCCCCCCCC[N+](C)(C)CCCCCCCCCCCCCC
inactive: dose: 6.25 mg/kg/injection, schedule: Q01DX009 (ip), vehicle: saline 120 % of control | dose: 16.5 mg/kg/injection, schedule: Q01DX009 (ip), vehicle: saline 87 % of control | dose: 17.0 mg/kg/injection, schedule: Q01DX009 (ip), vehicle: saline 119 % of control | dose: 25.0 mg/kg/injection, schedule: Q04DX003 (ip), vehicle: saline 118 % of control | dose: 37.0 mg/kg/injection, schedule: Q01DX009 (ip), vehicle: saline 119 % of control | dose: 50.0 mg/kg/injection, schedule: Q04DX003 (ip), vehicle: saline 104 % of control
